Measured values as given in patent US8895761B2, “4-phenylpyrane-3,5-diones, 4-phenylthiopyrane-3,5-diones and 2-phenylcyclohexane-1,3,5-triones as herbicides” (Syngenta Limited, priority 2007, dated 2014).

Key:
Assay type in all cases: in vivo
[1] = system: Echinochloa crus-galli (ECHCG); assay: Post-emergence herbicidal glasshouse test, Echinochloa crus-galli; conditions: Echinochloa crus-galli, 312 h, rate 250 g/ha, evaluated after 13 days, scale 100 = total damage to plant, 0 = no damage
Experimental: (§1) Seeds of a variety of test species were sown in standard soil in pots. After cultivation for one day (pre-emergence) or after 8 days cultivation (post-emergence) under controlled conditions in a glasshouse (at 24/16° C., day/night; 14 hours light; 65% humidity), the plants were sprayed with an aqueous spray solution derived from the formulation of the technical active ingredient in acetone/water (50:50) solution containing 0.5% Tween 20 (polyoxyethelyene sorbitan monolaurate, CAS RN 9005-64-5). The test plants were then grown in a glasshouse under controlled conditions in a glasshouse (at 24/16° C., day/night; 14 hours light; 65% humidity) and watered twice daily. After 13 days for pre and post-emergence, the test was evaluated ([…] to plant; 0=no damage to plant).
(§2) Setaria faberi (SETFA), Lolium perenne (LOLPE), Alopecurus myosuroides (ALOMY), Echinochloa crus-galli (ECHCG) and Avena fatua (AVEFA).

Avena fatua (AVEFA) [2] = assay: Post-emergence herbicidal glasshouse test, Avena fatua; conditions: Avena fatua, 312 h, rate 250 g/ha, evaluated after 13 days, scale 100 = total damage to plant, 0 = no damage
Experimental: as §1, §2

[3] = system: Alopecurus myosuroides (ALOMY); assay: Post-emergence herbicidal glasshouse test, Alopecurus myosuroides; conditions: Alopecurus myosuroides, 312 h, rate 250 g/ha, evaluated after 13 days, scale 100 = total damage to plant, 0 = no damage
Experimental: as §1, §2

[4] = system: Echinochloa crus-galli (ECHCG); assay: Pre-emergence herbicidal glasshouse test, Echinochloa crus-galli; conditions: Echinochloa crus-galli, 312 h, rate 250 g/ha, evaluated after 13 days, scale 100 = total damage to plant, 0 = no damage
Experimental: as §1, §2

Lolium perenne (LOLPE) [5] = assay: Post-emergence herbicidal glasshouse test, Lolium perenne; conditions: 312 h, rate 250 g/ha, evaluated after 13 days, scale 100 = total damage to plant, 0 = no damage
Experimental: as §1, §2

Avena fatua (AVEFA) [6] = assay: Pre-emergence herbicidal glasshouse test, Avena fatua; conditions: Avena fatua, 312 h, rate 250 g/ha, evaluated after 13 days, scale 100 = total damage to plant, 0 = no damage
Experimental: as §1, §2

[7] = system: Alopecurus myosuroides (ALOMY); assay: Pre-emergence herbicidal glasshouse test, Alopecurus myosuroides; conditions: Alopecurus myosuroides, 312 h, rate 250 g/ha, evaluated after 13 days, scale 100 = total damage to plant, 0 = no damage
Experimental: as §1, §2

Lolium perenne (LOLPE) [8] = assay: Pre-emergence herbicidal glasshouse test, Lolium perenne; conditions: 312 h, rate 250 g/ha, evaluated after 13 days, scale 100 = total damage to plant, 0 = no damage
Experimental: as §1, §2

SMILES	pest or weed control at 250 g/ha [1]	pest or weed control at 250 g/ha (Avena fatua (AVEFA) [2])	pest or weed control at 250 g/ha [3]	pest or weed control at 250 g/ha [4]	pest or weed control at 250 g/ha (Lolium perenne (LOLPE) [5])	pest or weed control at 250 g/ha (Avena fatua (AVEFA) [6])	pest or weed control at 250 g/ha [7]	pest or weed control at 250 g/ha (Lolium perenne (LOLPE) [8])
CCc1cc(-c2ccc(C(F)(F)F)cc2)ccc1C1=C(O)C(C)(C)OC(C)(C)C1=O [Compound A-70]	80%	0%	40%	0%	50%	0%	0%	0%
CCc1cc(-c2cccc(OC)c2)ccc1C1=C(O)C(C)(C)OC(C)(C)C1=O [Compound A-71]	80%	0%	30%	0%	80%	0%	0%	0%
CCc1cc(-c2ccc(C)c(F)c2)ccc1C1=C(O)C(C)(C)OC(C)(C)C1=O [Compound A-72]	80%	0%	0%	0%	70%	0%	0%	0%
CCc1cc(-c2ccc(C)cc2)ccc1C1=C(O)C(C)(C)OC(C)(C)C1=O [Compound A-73]	80%	0%	30%	0%	60%	0%	0%	0%
CCc1cc(-c2cc(Cl)ccc2OC)ccc1C1=C(O)C(C)(C)OC(C)(C)C1=O [Compound A-74]	100%	40%	80%	0%	70%	0%	0%	0%
CCc1cc(-c2ccc(F)c(F)c2)ccc1C1=C(O)C(C)(C)OC(C)(C)C1=O [Compound A-75]	100%	90%	90%	0%	100%	30%	0%	40%
CCc1cc(-c2ccc(F)c(Cl)c2)ccc1C1=C(O)C(C)(C)OC(C)(C)C1=O [Compound A-76]	70%	40%	80%	0%	80%	0%	0%	0%
CCc1cc(-c2ccc(F)c(OC)c2)ccc1C1=C(O)C(C)(C)OC(C)(C)C1=O [Compound A-78]	100%	90%	80%	0%	100%	30%	20%	80%
CCc1cc(-c2ccc(F)cc2F)ccc1C1=C(O)C(C)(C)OC(C)(C)C1=O [Compound A-82]	80%	0%	80%	30%	80%	20%	10%	70%
CCc1cc(-c2cc(Cl)cc(C(F)(F)F)c2)ccc1C1=C(O)C(C)(C)OC(C)(C)C1=O [Compound A-83]	80%	50%	80%	0%	70%	0%	0%	0%
CCc1cc(-c2cc(F)c(F)c(F)c2)ccc1C1=C(O)C(C)(C)OC(C)(C)C1=O [Compound A-84]	100%	100%	80%	30%	100%	40%	30%	70%
CCc1cc(-c2ccc(F)cc2OC)ccc1C1=C(O)C(C)(C)OC(C)(C)C1=O [Compound A-85]	80%	40%	60%	20%	70%	30%	0%	70%
CCc1cc(-c2cc(F)c(F)cc2F)ccc1C1=C(O)C(C)(C)OC(C)(C)C1=O [Compound A-86]	100%	70%	80%	0%	90%	0%	0%	0%
CCc1cc(-c2ccc(F)c(F)c2F)ccc1C1=C(O)C(C)(C)OC(C)(C)C1=O [Compound A-87]	100%	90%	70%	0%	90%	0%	0%	0%
CCc1cc(-c2cccc(Cl)c2)ccc1C1=C(O)C(C)(C)OC(C)(C)C1=O [Compound A-95]	80%	50%	80%	30%	80%	0%	10%	30%
CCc1cc(-c2ccccc2)ccc1C1=C(O)C(C)(C)OC(C)(C)C1=O [Compound A-96]	90%	10%	80%	20%	80%	10%	0%	0%
CCc1cc(-c2cc(Cl)cc(Cl)c2)ccc1C1=C(O)C(C)(C)OC(C)(C)C1=O [Compound A-99]	100%	90%	90%	30%	90%	0%	10%	60%
CCc1cc(-c2ccc(F)cc2)ccc1C1=C(O)C(C)(COC)OC(C)(C)C1=O (centres unmarked) [Compound A-101]	100%	100%	100%	50%	100%	50%	70%	90%
CCc1cc(-c2ccc(F)cc2)ccc1C1=C(O)C(C)(CC)OC(C)(C)C1=O (centres unmarked) [Compound A-102]	90%	80%	100%	30%	90%	10%	60%	70%
CCc1cc(-c2ccc(F)cc2)ccc1C1=C(O)C2(CCCC2)OC(C)(C)C1=O [Compound A-103]	90%	10%	60%	20%	60%	0%	20%	20%
CCc1cc(-c2ccc(F)cc2)ccc1C1=C(O)C(C)(CC)OC(C)(CC)C1=O (centres unmarked) [Compound A-104]	90%	10%	90%	40%	60%	0%	50%	60%
CCc1cc(-c2ccc(F)cc2)ccc1C1=C(O)C(C)OC(C)(C)C1=O (centres unmarked) [Compound A-105]	90%	30%	80%	20%	90%	0%	40%	40%
